Data on two compounds can be found in patent US8207189B2, “Compound having affinity for amyloid” (Nihon Medi-Physics Co., Ltd., priority 2007, dated 2012).

Molecules are shown by their SMILES.

A short description of series [1]: partition coefficient based on the octanol extraction method. The series is classed as physicochemical. The settings on record: octanol / 10 mmol/L phosphate buffer pH 7.4. How it is done:
Partition coefficients based on the octanol extraction method (hereinafter referred to as log Poctanol) were measured, which are generally known as an indicator of permeability of compounds through the blood-brain barrier (hereinafter referred to as BBB).
A diethyl ether solution of Compound 1 prepared in Example 3 (Example 8), a diethyl ether solution of Compound 2 prepared in Example 6 (Example 9), and a diethyl ether solution of [^123I]-IMPY prepared in Reference Example 1 (Comparative Example 4) were each diluted with 10 mg/mL ascorbic acid-containing physiological saline solution, and adjusted to a radioactive concentration of 20-30 MBq/mL. To 2 mL of octanol, 10 μL each of the prepared sample solutions was added, 2 mL of 10 mmol/L phosphate buffer (pH 7.4) was added, followed by stirring for 30 seconds. After the mixture was centrifuged with a low-speed centrifuge (2000 rpm×60 min.), the octanol layer and the water layer were sampled each in an amount of 1 mL, and subjected to measurement of radioactivity count with an autowell gamma system (Type: ARC-301B, manufactured by Aloka). Using the obtained radioactivity count, log Poctanol was calculated in accordance with the equation (2).
A diethyl ether solution (Example 20) of Compound 4 prepared in Example 16, a diethyl ether solution (Example 21) of Compound 6 prepared in Example 19, and a diethyl ether solution (Comparative Example 7) of [^123I]-IMPY were each diluted with a 10 mg/mL ascorbic acid-containing physiological saline solution to adjust to a radioactive concentration of 20-30 MBq/mL. To 2 mL of octanol, 10 μL each of the prepared sample solution was added, and 2 mL of 10 mmol/L phosphate buffer (pH 7.4) was further added, followed by stirring for 30 seconds. After the mixture was centrifuged with a low-speed centrifuge (2000 rpm×60 min.), the octanol layer and the water layer were sampled each in an amount of 1 mL, and subjected to measurement of radioactivity count with an autowell gamma system (Type: ARC-301B, manufactured by Aloka). Using the obtained radioactivity count, log Poctanol was calculated in accordance with the equation (4).

Series [2] deals with T1, amyloid (aggregated Aβ1-40) injected into amygdaloid nucleus (Homo sapiens, UniProt P05067).
T1 construct: Aβ1-40 (manufactured by Peptide Institute, INC.) was dissolved in phosphate buffer (pH 7.4); purchased Peptide Institute, INC
The series can be described thus: ex vivo autoradiogram using rats of amyloid injected model (Aβ1-40). The series is classed as in vivo, rat. The following applies: brain slice 60 minutes after intravenous injection, Aβ1-40. How it is done:
(§1) (1) Aβ1-40 (manufactured by Peptide Institute, INC.) was dissolved in phosphate buffer (pH 7.4) and shaken at 37° C. for 72 hours, to obtain a 1 mg/mL suspension of aggregated Aβ (hereinafter referred to as amyloid suspension in this Example).
(§2) (2) 2.5 μL (corresponding to […]) of the amyloid suspension was injected into an amygdaloid nucleus on one side of a male Wistar rat (7-week old). As a control, 2.5 μL of a phosphate buffered physiological saline solution (pH 7.4) was injected into an amygdaloid nucleus on the other side of the rat. The rats were examined 1 day after the injection of the amyloid suspension and the phosphate buffered physiological saline solution (pH 7.4).
(§3) (3) [^123I]-IMPY was dissolved in a 10 mg/mL ascorbic acid-containing physiological saline solution to obtain a sample solution (29 MBq/mL in radioactivity concentration in the sample solution). This solution was injected under thiopental anesthesia into the rat through the tail vein (dosage: 0.5 mL, dosed radioactivity: 14.5 MBq equivalent).
(§4) (4) Brain was removed 60 minutes after the injection to prepare a brain slice of 10 μm in thickness with a microtome (type: CM3050S, manufactured by LEICA). The brain slice was exposed to an imaging plate for 20 hours, and then image analysis was carried out by use of a Bio-imaging Analyzer (type: BAS-2500; manufactured by FUJIFILM Corporation). […]

Series [3] concerns amyloid (aggregated Aβ1-40) injected into amygdaloid nucleus. The series is described as above. The series is classed as in vivo, rat. The settings on record: brain slice 60 minutes after intravenous injection. How it is done: as §1, §2, §3, §4
A short description of series [4]: transferability into brain and clearance after intravenous injection. It counts as in vivo, rat. The settings on record: male Wistar rats, intravenous injection. How it is done: Using Compound 1 (Example 10) and Compound 2 (Example 11), a time course change of radioactive accumulation in brain of male Wistar rats (7-week old) was measured.
A diethyl ether solution of Compound 1 (Example 10) prepared in Example 3, a diethyl ether solution of Compound 2 (Example 11) prepared in Example 6 and a diethyl ether solution of [^123I]-IMPY (Comparative Example 5) prepared in Reference Example 1 were each diluted with 10 mg/mL ascorbic acid-containing physiological saline solution to adjust to a radioactive concentration of 8-12 MBq/mL. 0.05 mL each of the prepared sample solutions was injected under thiopental anesthesia into the tail vein of the rats. The rats were sacrificed by bleeding from abdominal artery, and brains were removed and subjected to measurement of mass of brains and further subjected to measurement of radioactivity (hereinafter referred to as A in this Example) with a single channel analyzer (detector type: SP-20 manufactured by OHYO KOKEN KOGYO Co., Ltd.) 2, 5, 30 and 60 minutes after the injection. Further, the radioactivity level of the rest of the whole body was measured in the same manner as above (hereinafter referred to as B in this Example). Using these measurement results, radioactive distribution per unit weight of brain (% ID/g) at the respective time points were calculated in accordance with the following formula (3).
Three animals were used for the experiment at the respective time points.
Using Compound 4 and Compound 6, a time course change of radioactive accumulation in brain of male Wistar rats (7-week old) was measured.
Compound 4 (Example 22), Compound 6 (Example 23) and a solution of [^123I]-IMPY (Comparative Example 8) prepared above in Reference Example 1 were each diluted with a 10 mg/mL ascorbic acid-containing physiological saline solution to prepare solutions (20-31 MBq/mL in radioactive concentration). 0.05 mL each of the prepared sample solutions was injected under thiopental anesthesia into the tail vein of the respective Wistar rat (7-week old). The rats were sacrificed by bleeding from abdominal artery, and brains were removed and subjected to measurement of mass of brains and further subjected to measurement of radioactivity (hereinafter referred to as A in this Example) with a single channel analyzer (detector type: SP-20 manufactured by OHYO KOKEN KOGYO Co., Ltd.) 2, 5, 30 and 60 minutes after the injection. Further, the radioactivity level of the rest of the whole body was measured in the same manner as above (hereinafter referred to as B in this Example). Using these measurement results, radioactive distribution per unit weight of brain (% ID/g) at the respective time points were calculated in accordance with the following formula (5).

For series [5] the following is noted: rats, [11C]-labeled; cited from earlier work.

T1 sequence (P05067 672-711): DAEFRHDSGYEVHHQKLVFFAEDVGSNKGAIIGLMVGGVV

In the case of `CN(C)c1ccc(-c2cn3cc([123I])ccc3n2)cc1` [[^123I]-IMPY, reference compound], in series [1] (Table 4 (Examples 8-9, Comparative Example 4)), the logPoctanol value was determined as 1.9. In series [1] (Table 6 (Examples 20-21, Comparative Example 7)), this compound displayed a logPoctanol value of 2.1. Also, the “accumulation of radioactivity in amygdaloid nucleus on the amyloid-injected side” value in series [2] is recorded as “marked accumulation of radioactivity”. Also, in series [3], the “accumulation in white matter where amyloid was not injected” value was “non-specific accumulation was observed”. Further, in series [4] (Table 5), the “Radioactive distribution per unit weight in brain, After 2 min.” value was found to be 1.19 % ID/g; the “Radioactive distribution per unit weight in brain, After 5 min.” value was 0.97 % ID/g; the “Radioactive distribution per unit weight in brain, After 30 min.” value was determined as 0.23 % ID/g; the “Radioactive distribution per unit weight in brain, After 60 min.” value came to 0.09 % ID/g. In series [4] (Table 7), the “Radioactive distribution per unit weight in brain, After 2 min.” value came out at 1.19 % ID/g; the “Radioactive distribution per unit weight in brain, After 5 min.” value is 0.97 % ID/g; the “Radioactive distribution per unit weight in brain, After 30 min.” value was 0.23 % ID/g; the “Radioactive distribution per unit weight in brain, After 60 min.” value is recorded as 0.09 % ID/g.
Regarding `CNc1ccc(/C=C/c2ccc(O)cc2)cc1` [SB-13, (E)-4-methylamino-4′-hydroxystilbene], in series [5], the “clearance from normal tissues” value is on record as “it cannot be said that the clearance is sufficiently fast”.
